The source of these data is BindingDB's records for doi:10.1021/acschembio.6b00217 (Broad Institute, 2016).

A value given as a limit tells only on which side of the number the result lay.

Serine/threonine-protein kinase SIK2, sequence (Q9H0K1 whole entry): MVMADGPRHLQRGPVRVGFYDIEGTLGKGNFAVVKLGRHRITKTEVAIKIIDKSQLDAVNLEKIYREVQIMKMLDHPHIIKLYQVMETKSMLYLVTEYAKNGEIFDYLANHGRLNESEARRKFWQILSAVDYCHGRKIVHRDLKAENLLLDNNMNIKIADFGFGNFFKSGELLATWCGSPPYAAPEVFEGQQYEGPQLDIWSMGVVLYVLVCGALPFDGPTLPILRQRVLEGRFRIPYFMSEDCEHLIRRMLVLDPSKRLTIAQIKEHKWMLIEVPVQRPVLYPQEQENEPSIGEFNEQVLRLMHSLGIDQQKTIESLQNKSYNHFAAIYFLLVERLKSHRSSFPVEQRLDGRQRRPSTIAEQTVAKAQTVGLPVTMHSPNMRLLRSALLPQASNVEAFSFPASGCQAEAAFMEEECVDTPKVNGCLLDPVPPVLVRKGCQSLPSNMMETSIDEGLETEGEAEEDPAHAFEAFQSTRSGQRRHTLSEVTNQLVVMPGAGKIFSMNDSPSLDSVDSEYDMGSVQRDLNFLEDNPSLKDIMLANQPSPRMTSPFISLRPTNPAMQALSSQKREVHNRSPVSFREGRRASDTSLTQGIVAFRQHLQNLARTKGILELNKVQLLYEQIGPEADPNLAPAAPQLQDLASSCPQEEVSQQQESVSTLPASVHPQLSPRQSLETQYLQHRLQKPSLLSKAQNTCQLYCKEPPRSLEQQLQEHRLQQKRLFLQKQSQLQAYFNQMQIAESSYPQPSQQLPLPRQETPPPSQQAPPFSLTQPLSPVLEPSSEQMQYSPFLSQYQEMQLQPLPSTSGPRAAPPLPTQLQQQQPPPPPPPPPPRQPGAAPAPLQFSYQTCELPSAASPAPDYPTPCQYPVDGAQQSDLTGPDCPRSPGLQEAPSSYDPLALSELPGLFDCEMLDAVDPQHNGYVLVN

The test has as its target Serine/threonine-protein kinase SIK2 (Homo sapiens, UniProt Q9H0K1). The test can be described thus: Caliper-based Mobility Shift Assay. Particulars: pH 8. The method, then: IC50‘s for HG-9-91-01 derivatives were measured by Caliper-based mobility shift assay (PerkinElmer). […] Reactions were quenched by adding 20 mM EDTA (pH 8) after 1 hr, and percentage of substrate conversion was measured by LabChip EZ Reader II (PerkinElmer).
The IC50 is the concentration that inhibits the measured activity by half. In the case of `COc1ccc(N2C(=O)N(c3c(C)cccc3C)Cc3cnc(Nc4ccc(C5CCN(C)CC5)cc4OC(C)C)nc32)nc1` [HG-9-91-01 derivative, 7], the IC50 is over 7000 nM.

As to `CCOc1cc(C2CCN(C)CC2)ccc1Nc1ncc2c(n1)N(c1ccc(OC)cn1)C(=O)N(c1c(C)cccc1Cl)C2` [HG-9-91-01 derivative, 6], the IC50 stood at 150 nM.

For `COc1ccc(N2C(=O)N(c3c(C)cccc3Cl)Cc3cnc(Nc4ccc(N5CCN(C)CC5)cc4OC)nc32)nc1` [YKL-05-096 (4)], the IC50 is 34 nM.

With `COc1ccc(N2C(=O)N(c3c(C)cccc3Cl)Cc3cnc(Nc4ccc(N5CCN(C)CC5)cc4)nc32)nc1` [YKL-05-095 (3)], the IC50 was 6 nM.
